Measured values taken from PubChem BioAssay (NCI).
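Cultured in 96-well plates, cells were exposed to test compound for 48 hours across five concentrations. GI50 marks 50% less growth. TGI is the concentration that stops growth completely.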

Key:
Experiment in all cases: NCI anticancer screen, dose series, 48 h
A498 renal = tested on: A498 renal
HT29 colon = tested on: HT29 colon
IGROV1 ovarian = tested on: IGROV1 ovarian
NCI-H522 lung = tested on: NCI-H522 lung
OVCAR-5 ovarian = tested on: OVCAR-5 ovarian
RPMI-8226 leukemia = tested on: RPMI-8226 leukemia
SF-268 CNS = tested on: SF-268 CNS
SNB-19 CNS = tested on: SNB-19 CNS
UACC-62 melanoma = tested on: UACC-62 melanoma
HCC-2998 colon = tested on: HCC-2998 colon

SMILES | TGI (A498 renal) | TGI (HT29 colon) | TGI (IGROV1 ovarian) | TGI (NCI-H522 lung) | TGI (OVCAR-5 ovarian) | TGI (RPMI-8226 leukemia) | TGI (SF-268 CNS) | TGI (SNB-19 CNS) | TGI (UACC-62 melanoma) | TGI (HCC-2998 colon) | GI50 (A498 renal) | GI50 (HCC-2998 colon) | GI50 (HT29 colon) | GI50 (IGROV1 ovarian) | GI50 (NCI-H522 lung) | GI50 (OVCAR-5 ovarian) | GI50 (SF-268 CNS) | GI50 (SNB-19 CNS) | GI50 (UACC-62 melanoma) | GI50 (RPMI-8226 leukemia)
COc1ccc(C2=CC3CCC2C3)cc1 (stereo not drawn) | > 100 µM | > 100 µM | > 100 µM | > 100 µM | > 100 µM | > 100 µM | > 100 µM | > 100 µM | > 100 µM | – | – | – | – | – | – | – | – | – | – | –
CC1=NN(C(=O)Nc2ccccc2)C(=O)C2CCC(=O)N12 (stereo not drawn) | > 100 µM | – | > 100 µM | – | – | > 100 µM | > 100 µM | > 100 µM | > 100 µM | > 100 µM | – | – | – | – | – | – | – | – | – | –
Nc1nc(Cl)c2ncn(Cc3ccc(C45CC6CC(CC(C6)C4)C5)c(O)c3)c2n1 | 24.4 µM | 46.7 µM | 21.9 µM | 23.8 µM | 20.6 µM | – | 21.4 µM | 22.8 µM | 18.5 µM | 8.34 µM | 8.15 µM | 2.26 µM | 4.04 µM | 4.72 µM | 6.01 µM | 6.13 µM | 5.34 µM | 6.53 µM | 4.07 µM | –
Cn1c(=O)c2[nH]c(SCc3ccccn3)nc2n(C)c1=S | 55.2 µM | > 100 µM | > 100 µM | > 100 µM | > 100 µM | > 100 µM | > 100 µM | > 100 µM | > 100 µM | – | – | – | – | – | – | – | – | – | – | –
O=C1CCC2(c3ccc(F)cc3)Nc3cc(Cl)ccc3N12 (stereo not drawn) | > 100 µM | > 100 µM | > 100 µM | > 100 µM | – | > 100 µM | > 100 µM | > 100 µM | > 100 µM | – | – | – | – | – | – | – | – | – | – | –
COc1ccc(-c2cnnc3c(-c4cccc(C(F)(F)F)c4)cnn23)cc1 | 62.6 µM | – | > 100 µM | > 100 µM | > 100 µM | > 100 µM | 7.4 µM | 7.44 µM | > 100 µM | > 100 µM | 3.52 µM | > 100 µM | – | 1.97 µM | 3.66 µM | > 100 µM | 1.78 µM | 2.45 µM | 4.01 µM | 2.72 µM
O/N=C/C1c2ccccc2-c2ccccc21 | 32.9 µM | 28.6 µM | – | 33.4 µM | – | 52.8 µM | 37.6 µM | 38.6 µM | 30.2 µM | 31.9 µM | – | – | – | – | – | – | – | – | – | –
COc1ccc(/C=C/CN(C)CCc2ccccc2)cc1OC | – | > 100 µM | > 100 µM | – | > 100 µM | > 100 µM | > 100 µM | > 100 µM | > 100 µM | > 100 µM | – | – | – | – | – | – | – | – | – | –
O=C(O)CNS(=O)(=O)c1ccc(NCc2ccccc2)cc1 | – | > 100 µM | > 100 µM | > 100 µM | > 100 µM | > 100 µM | > 100 µM | > 100 µM | > 100 µM | > 100 µM | – | – | – | – | – | – | – | – | – | –
CC1=CC(=Nc2ccc(N(CCCl)CCCl)cc2)C=C(C)C1=O | 4.13 µM | 4.59 µM | – | – | 11.3 µM | 9.29 µM | 2.85 µM | > 65.8 µM | 6.47 µM | 9.83 µM | 1.68 µM | 2.29 µM | 1.11 µM | – | – | 2.72 µM | 0.409 µM | 2.81 µM | 1.12 µM | 1.14 µM
CCC[CH2][Sn]([CH2]CCC)([O]C(=O)c1cccnc1SC)[O]C(=O)c1cccnc1SC | 1.95 µM | 3.22 µM | 2.72 µM | 0.133 µM | 3.17 µM | – | 2.01 µM | 2.78 µM | 2.04 µM | 2.57 µM | 0.676 µM | 1.3 µM | 1.61 µM | 1.38 µM | 0.0216 µM | 1.76 µM | 0.65 µM | 1.46 µM | 0.791 µM | –
Nc1cc(N)c2nc(-c3ccccc3)c(Nc3ccc(Cl)c(Cl)c3)nc2c1 | 26.3 µM | – | 21.1 µM | 21.7 µM | 48.7 µM | 4.92 µM | 28.6 µM | 30.2 µM | 29.9 µM | – | 12.1 µM | – | – | 4.92 µM | 5.3 µM | 28 µM | 12 µM | 12.9 µM | 13.1 µM | 2 µM
COC(=O)C1Cc2c(n(Cc3ccccc3)c3ccccc23)C(CCC(=O)O)N1C(C)C (stereo not drawn) | > 100 µM | > 100 µM | > 100 µM | > 100 µM | > 100 µM | – | > 100 µM | > 100 µM | > 100 µM | > 100 µM | – | – | – | – | – | – | – | – | – | –
CCOC(=O)[C]1([Bi]([CH3])[CH3])N=NC(C(=O)OC)=C1C(=O)OC (stereo not drawn) | 49 µM | 39.4 µM | 51.9 µM | – | > 10 µM | 67.2 µM | 31.7 µM | 66 µM | 34.4 µM | 30.7 µM | 25.7 µM | 16.4 µM | 19.3 µM | 24.6 µM | – | > 10 µM | 17.2 µM | 26 µM | 19.5 µM | 21.5 µM
COC1/C=C\C=C(/C)C(=O)NC2=CC(=O)C(=O)C(=C2O)CC(C)CC(OC)C(O)C(C)/C=C(\C)C1OC(N)=O (stereo not drawn) | > 100 µM | 17.8 µM | > 100 µM | 18.3 µM | > 100 µM | 33.5 µM | > 58.9 µM | > 100 µM | > 32.6 µM | – | – | – | – | – | – | – | – | – | – | –
CCC(C)c1c(Cl)nc(Cl)nc1Cl (stereo not drawn) | – | 24.1 µM | 34.5 µM | 2.51 µM | 33.2 µM | > 100 µM | > 100 µM | 30.7 µM | 52.8 µM | 60.6 µM | – | – | – | – | – | – | – | – | – | –
CC(=O)CNC(=O)OC(C)(C)C | > 100 µM | > 100 µM | > 100 µM | > 100 µM | > 100 µM | – | > 100 µM | > 100 µM | > 100 µM | – | – | – | – | – | – | – | – | – | – | –
OCC(O)CC[CH2][Sn]([Br])([c]1ccccc1)[c]1ccccc1 (stereo not drawn) | – | > 100 µM | > 100 µM | 92.1 µM | > 100 µM | > 100 µM | – | > 100 µM | > 100 µM | > 100 µM | – | > 100 µM | > 100 µM | > 100 µM | 13 µM | > 100 µM | – | > 100 µM | 65.8 µM | > 100 µM
